Measurements reported in EP0530343B1, “WATER SOLUBLE, NON-IONIC X-RAY CONTRASTING AGENTS AND PROCESS FOR PRODUCING THE SAME” (Dr. Franz Köhler Chemie GmbH, priority 1991, dated 1992).

Assays:
[1] = Viscosity of aqueous solutions; type: physicochemical; conditions: Lösungen in Wasser mit 300 mg I/ml bei 37°C
Protocol: (§1) Die Osmolalität und Viskosität beziehen sich auf Lösungen in Wasser mit 300 mg I/ml bei 37°C.

[2] = Osmolality of aqueous solutions; type: physicochemical; conditions: Lösungen in Wasser mit 300 mg I/ml bei 37°C
Protocol: as §1

Solubility = type: physicochemical; conditions: read-out: Löslichkeit
[3] = bei 300 mg I/ml; commercial contrast agents; cited from earlier work

SMILES	Viskosität [1]	Osmolalität [2]	solubility (Solubility)	Osmolalitäten [3]
CC(=O)N(CCCC(O)CO)c1c(I)c(C(=O)N(C)C)c(I)c(N(CCCC(O)CO)C(C)=O)c1I (stereo not shown) [IX, 3,5-Bis(N-(4,5-dihydroxypentyl)-acetamido)-2,4,6-triiodbenzoesäure-N,N-dimethylamid]	6,3 cps	500 mOsmol/kg	> 1000 mg/mL	–
CC(=O)Nc1c(I)c(C(=O)N[C@H]2C(O)O[C@H](CO)[C@@H](O)[C@@H]2O)c(I)c(N(C)C(C)=O)c1I (stereo partly shown) [Metrizamid]	–	–	–	485 mOsmol/kg
CNC(=O)c1c(I)c(N(CCC(O)CO)C(C)=O)c(I)c(N(CCC(O)CO)C(C)=O)c1I (stereo not shown) [VI, 3,5-Bis(N-(3,4-dihydroxybutyl)-acetamido)-2,4,6-triiodbenzoesäure-N-methylamid]	5,3 cps	545 mOsmol/kg	> 1000 mg/mL	–
CC(=O)N(CCC(O)CO)c1c(I)c(C(=O)N(C)C)c(I)c(N(CCC(O)CO)C(C)=O)c1I (stereo not shown) [VII, 3,5-Bis(N-(3,4-dihydroxybutyl)-acetamido)-2,4,6-triiodbenzoesäure-N,N-dimethylamid]	4,5 cps	535 mOsmol/kg	> 1000 mg/mL	–
CNC(=O)c1c(I)c(N(CCCC(O)CO)C(C)=O)c(I)c(N(CCCC(O)CO)C(C)=O)c1I (stereo not shown) [VIII, 3,5-Bis(N-(4,5-dihydroxypentyl)-acetamido)-2,4,6-tri iodbenzoesäure-N-methylamid]	7,5 cps	330 mOsmol/kg	> 1000 mg/mL	–
CNC(=O)c1c(I)c(C(=O)NCC(O)CO)c(I)c(N(CCCC(O)CO)C(C)=O)c1I (stereo not shown) [XIX, 5-(N-(4,5-dihydroxypentyl)-acetamido)-2,4,6-triiod-N-methyl-N'-(2,3-dihydroxypropyl)-isophthaldiamid]	5,8 cps	405 mOsmol/kg	> 1000 mg/mL	–
CC(=O)N(CCC(O)CO)c1c(I)c(C(=O)N(C)CCN(C)C(=O)c2c(I)c(N(CCC(O)CO)C(C)=O)c(I)c(N(CCC(O)CO)C(C)=O)c2I)c(I)c(N(CCC(O)CO)C(C)=O)c1I (stereo not shown) [XV]	16,5 cps	255 mOsmol/kg	> 1000 mg/mL	–
